Experimental data as given in PubChem BioAssay AID2060509 (Molecular Pharmacology Branch, DTP, NCI, 2025).
Values joined by “and” are separate entries in the source; they are usually repeats but may differ in a detail not shown here. Identical values can stand only once.

System: 485176-168-R4-J1-PDC spheroids with HUVEC/MSC, viability
Test: Anticancer human tumor 485176-168-R4-J1-PDC patient-derived pancreatic adenocarcinoma cell line growth inhibition [GQUAD]
Conditions: for viability, T/C: stronger effect = lower value
Summary of the method: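 Tumor cells were grown as complex spheroids with HUVEC endothelial cells and mesenchymal stem cells as stroma. G-quadruplex stabilizers were combined with targeted agents over half-log dilutions from near the clinical Cmax, or from 10 microM.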

[1] = curve of first compound, second compound 0.0316 µM
[2] = curve of first compound, second compound 0.1 µM
[3] = curve of first compound, second compound 0.316 µM
[4] = curve of first compound, second compound 1 µM
[5] = curve of first compound, second compound 3.16 µM
[6] = curve of first compound, second compound 10 µM
[7] = second compound 0.0316 µM, first compound 0.0316 µM
[8] = second compound 0.0316 µM, first compound 0.316 µM
[9] = second compound 0.1 µM, first compound 0.0316 µM
[10] = second compound 0.1 µM, first compound 0.316 µM
[11] = second compound 0.316 µM, first compound 0.0316 µM
[12] = second compound 0.316 µM, first compound 0.316 µM
[13] = second compound 1 µM, first compound 0.0316 µM
[14] = second compound 1 µM, first compound 0.316 µM
[15] = second compound 3.16 µM, first compound 0.0316 µM
[16] = second compound 3.16 µM, first compound 0.316 µM
[17] = second compound 10 µM, first compound 0.0316 µM
[18] = second compound 10 µM, first compound 0.316 µM
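Also: spheroids exposed to compounds for seven days before readout.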
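For viability, T/C in this document: percent viability relative to DMSO vehicle control wells as 100%.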

## CC(=O)O[C@H]1C(=O)[C@@]2(C)[C@H]([C@H](OC(=O)c3ccccc3)[C@]3(O)C[C@H](OC(=O)[C@H](O)[C@@H](NC(=O)c4ccccc4)c4ccccc4)C(C)=C1C3(C)C)[C@]1(OC(C)=O)CO[C@@H]1C[C@@H]2O
Compound 0.0316 µM
  viability, T/C: 33.5% and 33.7% and 29.3%
Compound 0.1 µM
  viability, T/C: 10.2% and 14.9% and 9.73%
Compound 0.316 µM
  viability, T/C: 12.3% and 11.3% and 10.6%
Compound 1 µM
  viability, T/C: 10.9% and 13.4% and 9.36%
Compound 3.16 µM
  viability, T/C: 11% and 13.5% and 10.1%
Compound 10 µM
  viability, T/C: 13.7% and 11.4% and 9.37%
Curve of compound
  IC50: < 31.6 nM

## Cn1ncnc1[C@H]1c2n[nH]c(=O)c3cc(F)cc(c23)N[C@@H]1c1ccc(F)cc1 + Cc1[nH]c2ccc(F)cc2c1-c1nc2c3cccnc3c3ncccc3c2[nH]1
[1]
  IC50: > 316 nM
[2]
  IC50: > 316 nM
[3]
  IC50: > 316 nM
[4]
  IC50: > 316 nM
[5]
  IC50: > 316 nM
[6]
  IC50: > 316 nM
Second compound 0.0316 µM, first compound 0.000999 µM
  viability, T/C: 109%
Second compound 0.0316 µM, first compound 0.00316 µM
  viability, T/C: 80.7%
Second compound 0.0316 µM, first compound 0.00999 µM
  viability, T/C: 103%
[7]
  viability, T/C: 86.6%
Second compound 0.0316 µM, first compound 0.0999 µM
  viability, T/C: 91.8%
[8]
  viability, T/C: 109%
Second compound 0.1 µM, first compound 0.000999 µM
  viability, T/C: 90.9%
Second compound 0.1 µM, first compound 0.00316 µM
  viability, T/C: 92.2%
Second compound 0.1 µM, first compound 0.00999 µM
  viability, T/C: 88.3%
[9]
  viability, T/C: 109%
Second compound 0.1 µM, first compound 0.0999 µM
  viability, T/C: 93.4%
[10]
  viability, T/C: 99.5%
Second compound 0.316 µM, first compound 0.000999 µM
  viability, T/C: 78.3%
Second compound 0.316 µM, first compound 0.00316 µM
  viability, T/C: 95.6%
Second compound 0.316 µM, first compound 0.00999 µM
  viability, T/C: 101%
[11]
  viability, T/C: 117%
Second compound 0.316 µM, first compound 0.0999 µM
  viability, T/C: 97.9%
[12]
  viability, T/C: 84.4%
Second compound 1 µM, first compound 0.000999 µM
  viability, T/C: 77.2%
Second compound 1 µM, first compound 0.00316 µM
  viability, T/C: 90.2%
Second compound 1 µM, first compound 0.00999 µM
  viability, T/C: 94.3%
[13]
  viability, T/C: 90.5%
Second compound 1 µM, first compound 0.0999 µM
  viability, T/C: 87.2%
[14]
  viability, T/C: 88.9%
Second compound 3.16 µM, first compound 0.000999 µM
  viability, T/C: 85.5%
Second compound 3.16 µM, first compound 0.00316 µM
  viability, T/C: 89.3%
Second compound 3.16 µM, first compound 0.00999 µM
  viability, T/C: 86.2%
[15]
  viability, T/C: 79.7%
Second compound 3.16 µM, first compound 0.0999 µM
  viability, T/C: 96.4%
[16]
  viability, T/C: 85.1%
Second compound 10 µM, first compound 0.000999 µM
  viability, T/C: 106%
Second compound 10 µM, first compound 0.00316 µM
  viability, T/C: 86.2%
Second compound 10 µM, first compound 0.00999 µM
  viability, T/C: 89.5%
[17]
  viability, T/C: 77.9%
Second compound 10 µM, first compound 0.0999 µM
  viability, T/C: 91.7%
[18]
  viability, T/C: 78.5%

## COc1ccc([C@@H](O)c2cc(-c3ncnc4cc(N5CCOCC5)ccc34)c(F)cc2Cl)nn1 + Cc1cnc(CNC(=O)c2c(=O)c3ccc(N4CCCN(C)CC4)nc3n3c2sc2ccccc23)cn1
[1]
  IC50: 1100 nM
[2]
  IC50: 486 nM
[3]
  IC50: 321 nM
[4]
  IC50: 50.1 nM
[5]
  IC50: < 31.6 nM
[6]
  IC50: < 31.6 nM
[7]
  viability, T/C: 94.3%
Second compound 0.0316 µM, first compound 0.1 µM
  viability, T/C: 91.4%
[8]
  viability, T/C: 84.5%
Second compound 0.0316 µM, first compound 1 µM
  viability, T/C: 48.5%
Second compound 0.0316 µM, first compound 3.16 µM
  viability, T/C: 39.1%
Second compound 0.0316 µM, first compound 10 µM
  viability, T/C: 24.4%
[9]
  viability, T/C: 61.6%
Second compound 0.1 µM, first compound 0.1 µM
  viability, T/C: 67.9%
[10]
  viability, T/C: 45.4%
Second compound 0.1 µM, first compound 1 µM
  viability, T/C: 47.9%
Second compound 0.1 µM, first compound 3.16 µM
  viability, T/C: 31.5%
Second compound 0.1 µM, first compound 10 µM
  viability, T/C: 18.7%
[11]
  viability, T/C: 58.9%
Second compound 0.316 µM, first compound 0.1 µM
  viability, T/C: 64.7%
[12]
  viability, T/C: 46.9%
Second compound 0.316 µM, first compound 1 µM
  viability, T/C: 36.9%
Second compound 0.316 µM, first compound 3.16 µM
  viability, T/C: 29.5%
Second compound 0.316 µM, first compound 10 µM
  viability, T/C: 16.1%
[13]
  viability, T/C: 49.7%
Second compound 1 µM, first compound 0.1 µM
  viability, T/C: 54.6%
[14]
  viability, T/C: 37.2%
Second compound 1 µM, first compound 1 µM
  viability, T/C: 45.5%
Second compound 1 µM, first compound 3.16 µM
  viability, T/C: 30.1%
Second compound 1 µM, first compound 10 µM
  viability, T/C: 14.2%
[15]
  viability, T/C: 46%
Second compound 3.16 µM, first compound 0.1 µM
  viability, T/C: 43.7%
[16]
  viability, T/C: 36.6%
Second compound 3.16 µM, first compound 1 µM
  viability, T/C: 36%
Second compound 3.16 µM, first compound 3.16 µM
  viability, T/C: 31.9%
Second compound 3.16 µM, first compound 10 µM
  viability, T/C: 14.2%
[17]
  viability, T/C: 33.7%
Second compound 10 µM, first compound 0.1 µM
  viability, T/C: 39.7%
[18]
  viability, T/C: 36.5%
Second compound 10 µM, first compound 1 µM
  viability, T/C: 29.1%
Second compound 10 µM, first compound 3.16 µM
  viability, T/C: 28.8%
Second compound 10 µM, first compound 10 µM
  viability, T/C: 14.9%
